Assay results from patent US10385080B2, “STAT6 inhibitors” (Board of Regents, The University of Texas System, priority 2013, dated 2019).
“Also recorded” adds a separate entry of the source.

Assays:
STAT6 [1] = molecular target: T1, STAT6 (Homo sapiens, UniProt P42226); assay: Inhibition of IL-4 (and IL-13) stimulated phosphorylation of STAT6 in Beas-2B cells, western blot; format: cell-based; set-up: endogenous in cells; host or cells: Beas-2B immortalized human airway cells; conditions: dose response
T1 sequence (P42226 1-847): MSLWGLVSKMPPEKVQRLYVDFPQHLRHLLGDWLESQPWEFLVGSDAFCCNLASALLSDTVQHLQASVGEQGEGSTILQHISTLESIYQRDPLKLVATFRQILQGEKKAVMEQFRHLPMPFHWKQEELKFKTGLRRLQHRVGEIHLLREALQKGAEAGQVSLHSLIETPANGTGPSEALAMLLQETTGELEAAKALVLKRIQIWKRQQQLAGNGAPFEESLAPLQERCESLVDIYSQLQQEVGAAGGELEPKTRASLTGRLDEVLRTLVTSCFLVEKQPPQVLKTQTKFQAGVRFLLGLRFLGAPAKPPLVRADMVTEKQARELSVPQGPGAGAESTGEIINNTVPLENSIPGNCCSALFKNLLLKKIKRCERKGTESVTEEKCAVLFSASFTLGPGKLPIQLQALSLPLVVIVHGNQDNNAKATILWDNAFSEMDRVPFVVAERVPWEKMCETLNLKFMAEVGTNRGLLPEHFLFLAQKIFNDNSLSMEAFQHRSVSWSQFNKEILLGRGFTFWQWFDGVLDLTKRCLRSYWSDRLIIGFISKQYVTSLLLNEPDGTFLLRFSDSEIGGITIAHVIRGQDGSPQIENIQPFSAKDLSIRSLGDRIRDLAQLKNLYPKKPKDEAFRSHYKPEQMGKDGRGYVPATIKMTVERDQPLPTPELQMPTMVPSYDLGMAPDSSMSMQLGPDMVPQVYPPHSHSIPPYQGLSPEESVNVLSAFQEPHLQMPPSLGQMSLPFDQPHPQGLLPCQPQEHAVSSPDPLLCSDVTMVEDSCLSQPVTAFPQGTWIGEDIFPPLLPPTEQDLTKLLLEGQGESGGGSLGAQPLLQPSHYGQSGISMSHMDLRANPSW
Experimental: Compound PM-241H inhibited the phosphorylation of Tyr641 of STAT6 in Beas-2B cells stimulated with IL-4 and IL-13.
(§1) Compounds were screened at 5 μM for their ability to inhibit IL-4 stimulated phosphorylation of STAT6 in Beas-2B immortalized human airway cells. Cells were treated with prodrug for 2 hr and then stimulated with IL-4. After 30 min cells were lysed and pSTAT6 and total STAT6 were measured with western blots (FIG. 7). Without being bound by theory, the inhibition observed is consistent with compounds entering cells, being stripped of the POM groups, binding to the SH2 domain of STAT6, blocking binding to IL-4Rα and preventing phosphorylation of Tyr641. […] Compounds resulting in <10% residual phosphorylation were taken on to MTS cytotoxicity assays and dose response assays. (FIG. 8). The cyclic aromatic amides PM-63I, PM-80I, PM-81I, and PM-86I were very potent with IC50 values from 50-500 nM. […] With the exception of PM-43I, concentrations that inhibit STAT6 phosphorylation are 20-100 fold lower than those resulting in toxicity. STAT6 inhibitors were assayed for their ability to inhibit the phosphorylation of STAT 1, STAT 3, STAT 5, Akt, and FAK, all processes that depend on SH2 domain-phosphotyrosine interactions (Mandal, P. K. et al. 2011). Serum starved MDA-MB-468 breast cancer cells were treated with STAT6 inhibitors for 2 hr and then were stimulated with EGF (See FIGS. 9A and 9B).
(§2) Cells or lungs were isolated and lysed in RIPA buffer (9806S; Cell Signaling, Danvers, Mass.), protein was quantified using BCA Protein Assay Reagent (23227; Thermo Fisher Scientific, Rockford, Ill.) and denatured in Laemmli sample buffer (161-0737; Bio-Rad, Hercules, Calif.) according to manufacturer's protocol. Proteins were separated on SDS-Page gels were hand-poured using a standard electrophoresis unit (Bio-Rad, Hecules, Calif.) and transferred to a membrane using iBlot Gel Transfer Device (IB 1001; Invitrogen, Grand Island, N.Y.). Membranes were blocked in 2% FBS PBST and probed for c-Src, p-c-Src, pErk1/2, Erk1/2, p STAT6, STAT6, pSTAT3, STAT3, pSTAT5, STAT5, Shp-1, and β-actin. Signal was detected with a ChemiDoc XRS+ system (BioRad; Hercules, Calif.).

Stat5 = assay: Selectivity: Stat5 phosphorylation in EGF-stimulated MDA-MB-468 cells; format: cell-based; conditions: serum starved MDA-MB-468 cells, 2 hr
Experimental: as §1

[2] = system: asthma-related parameters; assay: Dose effect on asthma-related parameters in fungus-challenged mice; format: in vivo; conditions: fungus-challenged mice
Experimental: (§3) The issue of toxicity was addressed with the newer synthetic STAT6 peptidomimetic agents 86i and 43i in two ways. First, the inventors determined the effect of each inhibitor on asthma-related parameters in fungus-challenged mice. […] Second, the weights of mice were measured during challenge with the different doses of both STAT6 inhibitors.
(§4) Mice were challenged intranasally with a clinical isolate of 4×10^5 A. niger conidia every two days for a total of 8 challenges and treated with 50 μg of the indicated β-agonist, liposome vehicle (DLPC) and/or PM-242H (5 or 50 μg) intranasally as indicated and the allergic airway disease phenotype was determined according to previously described methods (Porter, P. et al. 2009).
(§5) Allergic airway disease was assessed as previously described (Porter, P. et al. 2009). Changes in respiratory system resistance (RRS) in response to intravenous acetylcholine challenge, bronchoalveolar lavage (BAL) fluid differential counts, and analysis of lung IL-4, IL-17A and IFN-γ producing cells by enzyme linked immunocell spot assay (ELISpot) were performed as previously described (Lee, S. H. et al. 2003; Polikepahad, S. et al. 2010).

allergic airway disease = assay: Allergic lung disease reversal model (A. niger spores, treatment of established disease); format: in vivo, mice
Experimental: FIG. 17A, Mice are treated intranasally with 400,000 Aspergillus niger conidia every other day. After two weeks A. niger conidia are administered with either DLPC or DLPC/PM-43I. Airway hyperresponsiveness is measured at week 2, 3, and 4. FIG. 17B, Airway hyperrepsonsiveness induced by acetylcholine is revered by treatment with PM-43I.
In separate experiments wild type C57BL/6 mice were challenged with the spores of A. niger for two weeks after which the inventors began to give PM-242H intranasally at 50 micrograms per dose at the time of continued fungal challenge for an additional two weeks (FIG. 13A).
as §4, §5
Lungs were perfused of blood by cannulating the pulmonary artery and injecting ice cold PBS until lavage returning via the left atrium was clear. Lungs were then inflated via the trachea with 10% formalin at 25 cm water pressure and the tracheas were tied off prior to removal of the cardiopulmonary unit en bloc submerging in 10% formalin overnight. Fixed lungs were then divided into individual lobes that were then halved and embedded in paraffin. Lung sections were cut at 5 microns and stained with the periodic acid-Schiff (PAS) kit (395B; Sigma-Aldrich, St. Louis, Mo.).

[3] = Toxicity: weights of mice during challenge with different doses; format: in vivo; conditions: highest dose of 50 micrograms
Experimental: as §3

Th1, Th2, Th17 cells = assay: Th cell development: ovalbumin restimulation ELISpot of splenocytes from ovalbumin/alum immunized mice; format: in vivo
Experimental: The ability of PM-242H to inhibit the development of major T helper effector subsets (Th1, Th2, Th17 cells) at the time of allergen exposure was tested. For these experiments, mice were immunized with chicken egg ovalbumin precipitated in alum over two weeks and then challenged intranasally with the spores of the fungus Aspergillus niger (AN) together with alum-free ovalbumin. The inventors prepared single cell suspensions of splenocytes from these same mice and stimulated the T cells in these preparations with ovalbumin to determine the precise number of antigen-specific Th1, Th2 and Th17 cells that developed. […] In summary, treatment of mice with PM-242H suppressed the development of Th2 and Th17, but not Th1 cells. These findings are entirely consistent with the known properties of STAT6, but in addition indicate that STAT6 may be involved with the production of Th17 cells.
(§6) Mice were sensitized to ovalbumin precipitated in alum as described in FIG. 3 (Corry, D. B. et al. 1996). In brief, mice were vaccinated intraperitoneally weekly with ovalbumin/alum together with PM-242H (50 or 250 μg) or liposome vehicle (DLPC) for 2 consecutive weeks and allowed to rest for 1 week. Mice were then intranasally challenged with ovalbumin (1 mg/mL in PBS; A5503, Sigma-Aldrich) and 4×10^5A. niger conidia for 5 consecutive days after which the allergic airway disease phenotype was assessed. Randomization was not used to assign mice to specific treatment groups. Investigators were blind as to mouse genotype and treatment during data collection.
Splenocytes from the indicated challenge groups of naïve and sensitized mice were assessed for antigen-specific recall cytokine responses by ELISpot. In brief, spleens were removed post mortem, de-aggregated by pressing through 40 μm nylon mesh and the red blood cells were removed from resulting cell suspension by hypotonic lysis. The splenocytes were then washed twice and cultured in flat-bottom wells of 96-well microtiter plates that were pre-coated with capture antibodies to IL-4, interferon gamma (IFN-γ) and IL-17A. Splenocytes were added in duplicate cultures of 0.5×10^6 cells/well that were then diluted serially two-fold to 0.015×10^6 cells/well. Cells were cultured in the presence of media or whole ovalbumin (1 mg/mL) overnight and plates were developed as previously described (Kheradmand, F. et al. 2002).

STAT6 [4] = assay: STAT6 phosphorylation in vitro and in vivo (summary statement)
Description: The synthesized PM-242H compound was advanced to in vivo studies. PM-242H was formulated as simple dilauroylphosphatidyl-choline liposomes and applied by intranasal administration. […] These findings with PM-242H in vivo and in vitro are entirely consistent with and explained by its ability to inhibit selectively STAT6.
as §2

allergic lung disease = assay: Allergic lung disease induction model (ovalbumin/alum immunization, ovalbumin and A. niger challenge); format: in vivo, mice
Experimental: The same model as described in part E was used to determine the effect of PH-242H on the induction of allergic lung disease. Mice that were immunized with ovalbumin and challenged intranasally with ovalbumin and A. niger spores developed AHR as determined by a shift to the left of the acetylcholine (Ach) dose response curve as compared to PBS challenged animals. Enzyme linked immunocell spot (ELISpot) assays were then performed on whole lung homogenates, assaying for IL-4, gamma interferon (IFN-γ) and IL-17A-secreting cells.
as §6, §5

[5] = A. niger conidia, DLPC/PM-43I after two weeks
[6] = splenocytes restimulated with ovalbumin
[7] = intranasal 50 micrograms per dose during established disease
[8] = ELISpot on whole lung homogenates

CC(=CC(=O)NC1CCCCN(CC(=O)N(C)c2ccccc2)C1=O)c1ccc(C(F)(F)P(=O)(OCOC(=O)C(C)(C)C)OCOC(=O)C(C)(C)C)cc1 (stereo not shown) [PM-43I]
IC50 (STAT6 [1]): 1 to 2.5 µM
cross reactivity with Stat5 (Stat5): significant cross reactivity
maximally effective dose [2]: 0.5 micrograms
established allergic airway disease (allergic airway disease; A. niger conidia every other day, DLPC/PM-43I after two weeks): reverses established allergic airway disease
immune cell recruitment (allergic airway disease; [5]): does not significantly affect
lung immune response to A. niger infection (allergic airway disease; [5]): does in inhibit
airway hyperresponsiveness induced by acetylcholine (allergic airway disease; A. niger conidia, DLPC/PM-43I after two weeks, weeks 2, 3, 4): revered
weight gain [3]: reduction in weight gain

CC(C)(C)C(=O)OCOP(=O)(OCOC(=O)C(C)(C)C)C(F)(F)c1ccc(/C=C/C(=O)NC(C(=O)N2CCCC2C(=O)N(c2ccccc2)c2ccc(-c3ccccc3)cc2)C(C)(C)C)cc1 (stereo not shown) [PM-242H]
effect on Th cells (Th1, Th2, Th17 cells; FIGS. 11A-H legend): inhibits Th cells
Th1 (IFN-γ)-secreting cells (Th1, Th2, Th17 cells; [6]): unaffected
development of Th2 (IL-4-producing) T cells (Th1, Th2, Th17 cells; [6]): failed to develop
development of Th17 (IL-17A-producing) T cells (Th1, Th2, Th17 cells; [6]): failed to develop
STAT6 phosphorylation both in vitro and in vivo (STAT6 [4]): inhibit
airway hyperresponsiveness (allergic airway disease; C57BL/6 mice, intranasal 50 micrograms per dose during established disease): abrogation of airway hyperresponsiveness; also recorded: promotes recovery from airway hyperresponsiveness
mucus production (allergic airway disease; FIGS. 13A-F legend): inhibition of mucus production
goblet cell metaplasia (periodic acid-Schiff staining) (allergic airway disease; [7]): reduction in goblet cell metaplasia
lung and airway inflammation (allergic airway disease; [7]): did not, however, attenuate
number of airway eosinophils (allergic airway disease; [7]): increased
number of lung IL-17A-secreting cells (allergic airway disease; [7]): increased
IL-17A-secreting cells in lungs (allergic lung disease; [8]): significantly suppressed
ratio between IL-4 and IFN-γ-secreting cells in lungs (allergic lung disease; [8]): significantly suppressed
development of allergic lung disease (allergic lung disease; FIG. 12 legend): blocks the development of allergic lung disease
